Results taken from ChEMBL document CHEMBL1133077, “Pyrrolo[3,2-c]pyridine derivatives as inhibitors of platelet aggregation” (Bioorg Med Chem Lett, 2000).

How the values were obtained:
Homo sapiens = species on record: Homo sapiens; test: Compound was evaluated for inhibition of ADP-mediated platelet aggregation; assay type: functional; set-up: concentration or dose not given beside the values
[1] = 1-Octanol/water distribution coefficient measured at 7.4; assay type: physicochemical; details: pH 7.4

SMILES | Inhibition (Homo sapiens) | logD [1]
c1ccc(CN2CCc3[nH]ccc3C2)cc1 | 46.5% | 1.59
CC1CN(C)C(C)c2cc([N+](=O)[O-])[nH]c21 (stereo not given) | 3.6% | 1.14
Clc1ccccc1CN1CCc2sccc2C1 [TICLOPIDINE] | 48.5% | 
CC1CN(C)C(C)c2cc(C=O)[nH]c21 (stereo not given) | 48% | 0.69
C=Cn1ccc2c1CCN(Cc1ccccc1)C2 | 38.7% | 
CC1CNC(C)c2cc[nH]c21 (stereo not given) | 26% | -1.08
CC1CN(C)C(C)c2cc(CO)[nH]c21 (stereo not given) | 3.3% | 
CC1CN(C)C(C)c2cc[nH]c21 (stereo not given) | 28.5% | -0.41
CCN1CCc2[nH]ccc2C1 | 23.7% | 
CC1CN(C)C(C)c2cc(/C=N/CCO)[nH]c21 (stereo not given) | 12.2% | 
